Values quoted from earlier work, collected in patent publication US20190187141A1, “Biomarkers for Detection and Treatment of Mast Cell Activity-Associated Disorders” (Arete Discoveries, Inc., priority 2016, published 2019).
Counter-ions that a name gives are not always drawn.

Key:
[1] = test system: lymphocytes, macrophages, mast cells and dendritic cells
cultured mast cells = settings: pannexin1 hemichannel dependent mechanism
mast cells [2] = settings: AD animal models; connexin 43 and pannexin1 hemichannel dependent
[3] = open label, 20 MS patients
[4] = phase II trial, 35 progressive MS patients
[5] = phase II study
mast cells [6] = test system: mast cells
mast cells [7] = settings: in vitro

With `Cc1ccc(NC(=O)c2ccc(CN3CCN(C)CC3)cc2)cc1Nc1nccc(-c2cccnc2)n1` [Imatinib] as the compound, how does the “secretion of pro-inflammatory cytokines IFN-γ, TNF-α, IL-1β and IL-17 and MMPs” value [1] read?
Its value is “inhibiting”.

What about the “anti-proliferative activity and immunomodulatory effects” value ([1]; lymphocytes, macrophages, mast cells and dendritic cells) of the same compound?
The value was “exerts anti-proliferative activity and immunomodulatory effects”.

With “Amyloid beta (Aβ) peptide 25-35 (GSNKGAIIGLM; Amyloid-beta protein 42; UniProt P05067 696-706, looked up, fragment) [amyloid beta peptide fragment 25-35]” as the compound, how does the “degranulation of cultured mast cells” value (cultured mast cells) read?
Its value is “causes rapid degranulation of cultured mast cells”.

And the “mast cell dye uptake and histamine release” value (mast cells [2])?
The value was “promotes both connexin 43 and pannexinl hemichannel dependent mast cell dye uptake and histamine release”.

With `OCCOCCN1CCN(C(c2ccccc2)c2ccc(Cl)cc2)CC1` (centres unmarked) [hydroxyzine] as the compound, how does the “degranulation of mast cells within the thalamus” value (EAE; EAE) read?
The value was “inhibit”.

What about the “progression and severity of EAE” value (EAE; in vivo) of the same compound?
Its value is “inhibit the progression and severity of EAE”.

And the “neurological outcome in MS patients” value [3]?
The value was “stability or improvement neurologically”.

Which “efficacy in progressive MS” value [4] does the source give for `Cc1ccc(NC(=O)c2ccc(CN3CCN(C)CC3)cc2)cc1Nc1nc(-c2cccnc2)cs1` [masitinib] here?
Its value is “some efficacy”.

What about the “cognitive decline in AD patients” value [5] of the same compound?
The value was “some benefit in slowing cognitive decline”.

And the “inhibition of survival, migration and activity of mast cells” value (mast cells [6])?
The value was “effectively inhibits the survival, migration and activity of mast cells”.

For `COC(=O)/C=C/C(=O)OC` [dimethyl fumarate], which “apoptosis of mast cells” value (mast cells [7]) is on record?
The value was “induces apoptosis of mast cells in vitro”.
